# Laboratory results: patent US20030129222A1, “Liposomal imexon” (priority 2000, published 2003)
# Like-named read-outs stand apart in the source and are kept apart here.
# Assays:
# L1210 leukemia, Mdr = assay: Cytotoxicity in tumor cell culture, MTT assay; format: cell-based, murine; conditions: Mus musculus, L1210; MTT assay, multidrug-resistant; read-out: IC50 against human mouse tumors, L1210 leukemia Mdr
# Excerpt: (§1) Relative potencies of the N-substituted 2-cyanoaziridine-1-carboxamides in a panel of tumor cell cultures are compared in Table 3. This panel includes the following lines of human tumor cells: sensitive and imexon-resistant lines of multiple myeloma (Matsuoka et al., 1967); ovarian carcinoma resistant to standard drugs (Hamilton et al., 1984); melanoma with a slow growth fraction (Girard et al., 1973); breast carcinoma including sensitive, doxorubicin-resistant (P-glycoprotein-positive) (Taylor et al., 1991), and mitoxantrone-resistant (P-glycoprotein-negative) (Futscher et al., 1994) lines; sensitive and multidrug-resistant colon carcinoma (Noguchi et al., 1979; Dalton et al., 1988); and multidrug-resistant lung carcinoma (P-glycoprotein-negative) (Girard et al., 1973). It also has sensitive (Goldin et al., 1961) and multidrug-resistant (P-glycoprotein-positive) (Salmon and Hersh, 1994) murine L1210 leukemia cells.
# L1210 leukemia, Sens = assay: Cytotoxicity in tumor cell culture, MTT assay; format: cell-based, murine; conditions: Mus musculus, L1210; MTT assay; read-out: IC50 against human mouse tumors, L1210 leukemia Sens
# Excerpt: as §1
# [1] = tested on: 8226 myeloma, Sens (drug-sensitive); assay: Cytotoxicity in tumor cell culture, SRB assay; format: cell-based, human; conditions: Homo sapiens
# Excerpt: as §1
# A-549 lung = assay: Cytotoxicity in tumor cell culture, SRB assay; format: cell-based, human; conditions: Homo sapiens, A549; read-out: IC50 against human mouse tumors, A-549 lung
# Excerpt: as §1
# A375 melan = assay: Cytotoxicity in tumor cell culture, SRB assay; format: cell-based, human; conditions: Homo sapiens, A-375; read-out: IC50 against human mouse tumors, A375 melan
# Excerpt: as §1
# [2] = tested on: MCF7 breast, Dox (doxorubicin-resistant); assay: Cytotoxicity in tumor cell culture, SRB assay; format: cell-based, human; conditions: Homo sapiens, MCF7; doxorubicin-resistant; read-out: IC50 against human mouse tumors, MCF7 breast Dox
# Excerpt: as §1
# MCF7 breast, Sens = assay: Cytotoxicity in tumor cell culture, SRB assay; format: cell-based, human; conditions: Homo sapiens, MCF7; read-out: IC50 against human mouse tumors, MCF7 breast Sens
# Excerpt: as §1
# [3] = tested on: MCF7 breast, mitox (mitoxantrone-resistant); assay: Cytotoxicity in tumor cell culture, SRB assay; format: cell-based, human; conditions: Homo sapiens, MCF7; mitoxantrone-resistant; read-out: IC50 against human mouse tumors, MCF7 breast mitox
# Excerpt: as §1
# OVCAR3 ovarian = assay: Cytotoxicity in tumor cell culture, SRB assay; format: cell-based, human; conditions: Homo sapiens, OVCAR-3; read-out: IC50 against human mouse tumors, OVCAR3 ovarian
# Excerpt: as §1
# [4] = tested on: 8226 myeloma, Res (imexon-resistant); assay: Cytotoxicity in tumor cell culture, SRB assay; format: cell-based; conditions: Homo sapiens; line made resistant to imexon; read-out: IC50 against human mouse tumors, 8226 myeloma Res
# Excerpt: as §1
# WiDr colon, Sens = assay: Cytotoxicity in tumor cell culture, SRB assay; format: cell-based; conditions: Homo sapiens, WiDr; read-out: IC50 against human mouse tumors, WiDr colon Sens
# Excerpt: as §1
# WiDr colon, res = assay: Cytotoxicity in tumor cell culture, SRB assay; format: cell-based; conditions: Homo sapiens, WiDr; multidrug-resistant; read-out: IC50 against human mouse tumors, WiDr colon res
# Excerpt: as §1
# [5] = tested on: panel of tumor cells in culture; assay: Panel of tumor cell cultures (all lines of Table 3); format: cell-based, human, murine
# Excerpt: A set of twenty 2-cyanoaziridine-1-carboxamides was synthesized from 2-cyanoaziridine and appropriate isocyanates. […] It is contemplated that one or more of these 2-cyanoaziridine-1-carboxamides derivatives may be used in combination with a lipid and/or another agent.
# [6] = tested on: Breast (cloned fresh human tumors); assay: Human tumor cloning assay, [3H]thymine uptake by tumor-colony-forming cells; format: cell-based; conditions: No. tested 4
# Method: (§2) Assays of antitumor agents against fresh human tumor-colony-forming cells provide results that predict better the responses obtained in treating cancer patients than those obtained with long established human cell lines (Salmon et al., 1981). For this reason, the N-phenyl derivative 13 was tested against a variety of fresh human tumors obtained at the Arizona Cancer Center using established methodology (Salmon and Hersh, 1994).
# [7] = tested on: Lung (cloned fresh human tumors); assay: as above; format: cell-based; conditions: No. tested 2
# Method: as §2
# [8] = tested on: Melanoma (cloned fresh human tumors); assay: as above; format: cell-based; conditions: No. tested 10
# Method: as §2
# [9] = tested on: Myeloma (cloned fresh human tumors); assay: as above; format: cell-based; conditions: No. tested 3
# Method: as §2
# [10] = tested on: Other Gynecologic (cloned fresh human tumors); assay: as above; format: cell-based; conditions: No. tested 4
# Method: as §2
# [11] = tested on: Ovary (cloned fresh human tumors); assay: as above; format: cell-based; conditions: No. tested 12
# Method: as §2
# [12] = tested on: Sarcoma (cloned fresh human tumors); assay: as above; format: cell-based; conditions: for no. sensitive: Sarcoma, No. tested 8
# Method: as §2
# [13] = tested on: Stomach (cloned fresh human tumors); assay: as above; format: cell-based; conditions: No. tested 1
# Method: as §2
# [14] = tested on: transplanted syngeneic tumors; conditions: rodents; cited from earlier work
# [15] = tested on: human lymphoma, melanoma, and prostate cancer cell lines; conditions: cited from earlier work
# [16] = cited from earlier work
# fresh human tumor cells = conditions: cited from earlier work
# [17] = tested on: fresh human tumor-colony-forming cells; assay: Human tumor cloning assay, eight tumor cell types together; format: cell-based
# Method: as §2
# [18] = substituent constant, from Hansch and Leo or calculated using Clog P software; cited from earlier work
# PIE 2-3 sarcoma = conditions: 13: over a 10-fold dose range; cited from earlier work
# [19] = drug-sensitive line, read-out: IC50 against human mouse tumors, 8226 myeloma Sens
# [20] = 13 2.0 μM (second column of 13)
smiles,measurement,setting,value
"N=C1NC(=O)N2CC12 (centres unmarked) [Imexon, 4-imino-1,3-diazabicyclo[3.1.0]hexan-2-one]",IC50,"L1210 leukemia, Mdr",477 µM
same,IC50,"L1210 leukemia, Sens",612 µM
same,IC50,[1]; [19],17 µM
same,IC50,A-549 lung,> 72 µM
same,IC50,A375 melan,324 µM
same,IC50,[2],> 18 µM
same,IC50,"MCF7 breast, Sens",> 18 µM
same,IC50,[3],> 18 µM
same,IC50,OVCAR3 ovarian,640 µM
same,IC50,[4],115 µM
same,IC50,"WiDr colon, Sens",> 72 µM
same,IC50,"WiDr colon, res",> 72 µM
same,selectivity among tumor cell types,[5],selective for multiple myeloma
same,no. sensitive,[6]; Imexon 0.1 μM,0
same,no. sensitive,[6]; Imexon 1.0 μM,2
same,no. sensitive,[6]; Imexon 10 μM,3
same,no. sensitive,[7]; Imexon 0.1 μM,0
same,no. sensitive,[7]; Imexon 1.0 μM,0
same,no. sensitive,[7]; Imexon 10 μM,2
same,no. sensitive,[8]; Imexon 0.1 μM,3/5
same,no. sensitive,[8]; Imexon 1.0 μM,4
same,no. sensitive,[8]; Imexon 10 μM,8
same,no. sensitive,[9]; Imexon 0.1 μM,3
same,no. sensitive,[9]; Imexon 1.0 μM,3
same,no. sensitive,[9]; Imexon 10 μM,3
same,no. sensitive,[10]; Imexon 0.1 μM,0
same,no. sensitive,[10]; Imexon 1.0 μM,0
same,no. sensitive,[10]; Imexon 10 μM,1
same,no. sensitive,[11]; Imexon 0.1 μM,4
same,no. sensitive,[11]; Imexon 1.0 μM,3/11
same,no. sensitive,[11]; Imexon 10 μM,8
same,no. sensitive,[12]; Imexon 0.1 μM,0/2
same,no. sensitive,[12]; Imexon 1.0 μM,2
same,no. sensitive,[12]; Imexon 10 μM,5
same,no. sensitive,[13]; Imexon 0.1 μM,0
same,no. sensitive,[13]; Imexon 1.0 μM,0
same,no. sensitive,[13]; Imexon 10 μM,1
same,activity against transplanted syngeneic tumors,[14],active
same,activity against human tumor cell lines in SCID mice,[15],active
same,tolerability,[16]; Phase I,well-tolerated
same,clinical response,"[16]; patients with lung cancer, breast cancer, or liver cancer",objective responses or stabilization of the disease
same,cytotoxicity in clonogenic assay,fresh human tumor cells,selectively cytotoxic to multiple myeloma
"N#CC1CN1C(=O)Nc1ccccc1 (centres unmarked) [Compound 13, 2-Cyanoaziridine-1-(N-phenyl)carboxamide]",IC50,"L1210 leukemia, Mdr",11 µM
same,IC50,"L1210 leukemia, Sens",1.2 µM
same,IC50,[1]; read-out: Log(1/C) (converted),5.37 µM
same,IC50,"[1]; against sensitive myeloma, values repeated from Table 3 (μM there), read-out: IC50",5.3 µM
same,IC50,[1]; [19],5.3 µM
same,IC50,A-549 lung,9 µM
same,IC50,A375 melan,11 µM
same,IC50,[2],2.6 µM
same,IC50,"MCF7 breast, Sens",2.9 µM
same,IC50,[3],4.3 µM
same,IC50,OVCAR3 ovarian,6.8 µM
same,IC50,[4],8 µM
same,IC50,"WiDr colon, Sens",5 µM
same,IC50,"WiDr colon, res",12 µM
same,no. sensitive,[6]; 13 0.2 μM,2
same,no. sensitive,[6]; [20],2
same,no. sensitive,[6]; 13 2.0 μM (third column of 13),3
same,no. sensitive,[7]; 13 0.2 μM,0
same,no. sensitive,[7]; [20],1
same,no. sensitive,[7]; 13 2.0 μM (third column of 13),2
same,no. sensitive,[8]; 13 0.2 μM,3/5
same,no. sensitive,[8]; [20],8
same,no. sensitive,[8]; 13 2.0 μM (third column of 13),10
same,no. sensitive,[9]; 13 0.2 μM,2/2
same,no. sensitive,[9]; [20],2/2
same,no. sensitive,[9]; 13 2.0 μM (third column of 13),2/2
same,no. sensitive,[10]; 13 0.2 μM,0
same,no. sensitive,[10]; [20],2
same,no. sensitive,[10]; 13 2.0 μM (third column of 13),3
same,no. sensitive,[11]; 13 0.2 μM,3/10
same,no. sensitive,[11]; [20],10/11
same,no. sensitive,[11]; 13 2.0 μM (third column of 13),10
same,activity against the sarcoma cells compared with imexon,[12],superior
same,no. sensitive,[12]; 13 0.2 μM,2/2
same,no. sensitive,[12]; [20],4
same,no. sensitive,[12]; 13 2.0 μM (third column of 13),5
same,no. sensitive,[13]; 13 0.2 μM,1
same,no. sensitive,[13]; [20],1
same,no. sensitive,[13]; 13 2.0 μM (third column of 13),1
same,effectiveness compared with imexon,[17]; 13 at 0.2 μM versus imexon at 1.0 μM,about as effective as imexon
same,activity and potency compared with imexon in fresh human tumor cells,[17]; listed as N-phenyl derivative,more potent and equally effective to imexon
same,melting point,,88 to 90 °C
same,π,[18],2.00
same,activity against PIE 2-3 sarcoma,PIE 2-3 sarcoma,active
